The subject of one series is CYP2C9. Also noted: method as in PMID 30078466. The settings on record: cited from earlier work.
In series [1] the test system is OATP1B1. To be noted: cited from earlier work.
A further series concerns OATP1B3. The settings on record: cited from earlier work.
In the next series the test system is UGT1A9. The settings on record: cited from earlier work; for IC50: read-out: IC50 UGT1A9.
Series [2] addresses T1, OATP1B1 (Homo sapiens, UniProt Q9Y6L6).
T1 sequence (Q9Y6L6 1-691): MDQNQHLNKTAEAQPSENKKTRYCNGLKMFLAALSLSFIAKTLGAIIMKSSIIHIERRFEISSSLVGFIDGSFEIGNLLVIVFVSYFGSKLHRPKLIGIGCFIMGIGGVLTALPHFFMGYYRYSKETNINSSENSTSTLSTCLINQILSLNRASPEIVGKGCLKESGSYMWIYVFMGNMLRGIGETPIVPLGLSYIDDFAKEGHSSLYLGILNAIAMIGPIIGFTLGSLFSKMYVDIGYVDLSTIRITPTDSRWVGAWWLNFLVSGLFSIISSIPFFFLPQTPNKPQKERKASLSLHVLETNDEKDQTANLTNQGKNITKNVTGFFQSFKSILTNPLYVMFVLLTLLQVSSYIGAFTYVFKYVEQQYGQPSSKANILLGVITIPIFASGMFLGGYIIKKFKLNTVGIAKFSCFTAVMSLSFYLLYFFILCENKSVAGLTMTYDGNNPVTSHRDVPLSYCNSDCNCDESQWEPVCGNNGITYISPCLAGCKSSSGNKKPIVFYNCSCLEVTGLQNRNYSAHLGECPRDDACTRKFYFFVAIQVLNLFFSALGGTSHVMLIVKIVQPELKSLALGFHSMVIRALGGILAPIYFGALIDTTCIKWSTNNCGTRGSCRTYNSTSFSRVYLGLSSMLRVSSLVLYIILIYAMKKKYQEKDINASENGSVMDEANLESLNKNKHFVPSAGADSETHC
As to the kind of experiment: Inhibition of OATP1B1-mediated valsartan uptake in HEK293-OATP1B1 cells. The format is cell-based. Also noted: host or cells: HEK293. To be noted: 5 μM valsartan, 5 min. On the procedure: Transporter mediated uptake of probe substrates or valsartan was calculated by subtracting the uptake rate of probe substrates or valsartan into HEK293-mock cells from that into HEK293 cells expressing respective transporters.

The nature of series [3]: Plasma pharmacokinetics of Rc in rats after repeated iv injection. In kind it is in vivo. To be noted: rat plasma, Rc 3 mg/kg/day iv for 5 days. As to the method:
The rats were randomly divided into the control and Rc groups. The Rc group was injected with Rc solution (3 mg/mL/kg, dissolved in saline) intravenously via the tail vein for 5 consecutive days. The control group received saline (1 mL/kg) for 5 consecutive days via the tail vein. After 1 h following the last Rc treatment, valsartan was injected intravenously via the femoral vein at 1 mg/kg.

Series [4] is described as follows: Plasma and liver distribution of Rc in rats after iv injection. In kind it is in vivo, rat. As to the method:
The rats were injected with Rc solution (3 mg/mL/kg, dissolved in saline) via the tail vein. Blood samples were collected from the abdominal artery, and the liver tissue was immediately excised, gently washed with ice-cold saline, and weighed after the rats were euthanized at 2, 12, and 48 h after intravenous injection of Rc. The blood samples were centrifuged (16,000× g, 10 min, 4 °C) and the liver tissue samples were homogenized with four volumes of saline. Aliquots (50 μL each) of plasma and liver homogenates were stored at −80 °C until the analysis of the ginsenoside Rc.

The next series relates to UGT1A3. Also noted: method as in PMID 27462006. The settings on record: cited from earlier work.
The subject of the next series is UGT2B7. Also noted: method as in PMID 27462006. The settings on record: cited from earlier work.

The values that follow come from article PMC7037682, “Herb–Drug Interaction of Red Ginseng Extract and Ginsenoside Rc with Valsartan in Rats” (Molecules, 2020).

Each structure is given as a SMILES string.

On to `CC(C)=CCC[C@](C)(O[C@@H]1O[C@H](CO[C@@H]2O[C@H](CO)[C@@H](O)[C@H](O)[C@H]2O)[C@@H](O)[C@H](O)[C@H]1O)[C@H]1CC[C@]2(C)[C@@H]1[C@H](O)C[C@@H]1[C@@]3(C)CC[C@H](O[C@@H]4O[C@H](CO)[C@@H](O)[C@H](O)[C@H]4O[C@@H]4O[C@H](CO)[C@@H](O)[C@H](O)[C@H]4O)C(C)(C)[C@@H]3CC[C@]12C` [Rb1, ginsenoside Rb1], for which the IC50 in the series with CYP2C9 is 2.4 µM; in the series with OATP1B1 [1], 33.2 µM; in the series with OATP1B3 it was 4.8 µM; in the series with UGT1A9, 21.3 µM; on OATP1B1 [2], 24.1 µM.

Regarding `CC(C)=CCC[C@](C)(O[C@@H]1O[C@H](CO[C@@H]2OC[C@H](O)[C@H](O)[C@H]2O)[C@@H](O)[C@H](O)[C@H]1O)[C@H]1CC[C@]2(C)[C@@H]1[C@H](O)C[C@@H]1[C@@]3(C)CC[C@H](O[C@@H]4O[C@H](CO)[C@@H](O)[C@H](O)[C@H]4O[C@@H]4O[C@H](CO)[C@@H](O)[C@H](O)[C@H]4O)C(C)(C)[C@@H]3CC[C@]12C` [Rb2, ginsenoside Rb2], half-maximal inhibition against OATP1B1 [2] (IC50) was put at 8.8 µM.

Consider `CC(C)=CCC[C@](C)(O[C@@H]1O[C@H](CO[C@@H]2O[C@@H](CO)[C@H](O)[C@H]2O)[C@@H](O)[C@H](O)[C@H]1O)[C@H]1CC[C@]2(C)[C@@H]1[C@H](O)C[C@@H]1[C@@]3(C)CC[C@H](O[C@@H]4O[C@H](CO)[C@@H](O)[C@H](O)[C@H]4O[C@@H]4O[C@H](CO)[C@@H](O)[C@H](O)[C@H]4O)C(C)(C)[C@@H]3CC[C@]12C` [Rc, ginsenoside Rc], for which, in series [3], the AUC(0-inf) was 1060 ± 325 µM·h, the C0 was 34 ± 5.22 µM, the MRT turned out to be 38.5 ± 5.11 h and the half-life was 27.5 ± 4.26 h. Further, the AUC(0-t) in series [3] (read-out: AUC24h) amounted to 749 ± 185 µM·h. In addition, the “free Rc concentration in rat liver” value in series [4] (estimated from concentration and protein binding) is 0.07 to 0.14 µM. In addition, in series [4] (rat, liver (versus plasma), rats, Rc 3 mg/kg iv, 2, 12 and 48 h, read-out: liver-to-plasma concentration ratio), the Kp lay in the range of 0.13 to 0.2. At OATP1B1 [2], this molecule had a half-maximal inhibitory concentration (IC50) of 13.6 µM.

Consider `CC(C)=CCC[C@](C)(O[C@@H]1O[C@H](CO)[C@@H](O)[C@H](O)[C@H]1O)[C@H]1CC[C@]2(C)[C@@H]1[C@H](O)C[C@@H]1[C@@]3(C)CC[C@H](O)C(C)(C)[C@@H]3[C@@H](O[C@@H]3O[C@H](CO)[C@@H](O)[C@H](O)[C@H]3O[C@@H]3O[C@@H](C)[C@H](O)[C@@H](O)[C@H]3O)C[C@]12C` [Re, ginsenoside Re], for which the “IC50 UGT1A9” value with UGT1A9 is “did not inhibit”.

Regarding `CC(C)=CCC[C@](C)(O[C@@H]1O[C@H](CO)[C@@H](O)[C@H](O)[C@H]1O)[C@H]1CC[C@]2(C)[C@@H]1[C@H](O)C[C@@H]1[C@@]3(C)CC[C@H](O)C(C)(C)[C@@H]3[C@@H](O[C@@H]3O[C@H](CO)[C@@H](O)[C@H](O)[C@H]3O)C[C@]12C` [Rg1, ginsenoside Rg1], in the series with UGT1A9, the “IC50 UGT1A9” value is reported as “did not inhibit”.

In the case of `CC(C)=CCC[C@](C)(O)[C@H]1CC[C@]2(C)[C@@H]1[C@H](O)C[C@@H]1[C@@]3(C)CC[C@H](O[C@@H]4O[C@H](CO)[C@@H](O)[C@H](O)[C@H]4O[C@@H]4O[C@H](CO)[C@@H](O)[C@H](O)[C@H]4O)C(C)(C)[C@@H]3CC[C@]12C` [Rg3, ginsenoside Rg3], the IC50 in the series on UGT1A3 was 20.9 µM; in the series on UGT2B7, 23.1 µM; in the series with UGT1A9, 15.1 µM.

Take `CC(C)=CCC[C@](C)(O)[C@H]1CC[C@]2(C)[C@@H]1[C@H](O)C[C@@H]1[C@@]3(C)CC[C@H](O[C@@H]4O[C@H](CO)[C@@H](O)[C@H](O)[C@H]4O)C(C)(C)[C@@H]3CC[C@]12C` [Rh2, ginsenoside Rh2]: in the series on UGT1A3, the IC50 is 37.9 µM.

As a reminder, the IC50 is the concentration needed to halve the response being measured. For orientation: AUC(0-inf) means the area under the concentration-time curve extrapolated to infinity. A higher AUC(0-inf) goes with more exposure. The MRT is the average time that molecules of a dose stay in the body. By half-life is commonly meant how long it takes for the measured level to halve. Read a low half-life as rapid decline.
